Results as given in patent US20070155782A1, “Nk-1 receptor antagonists anesthesia recovery” (priority 2004, published 2007).
Values joined by “and” are separate entries in the source; they are usually repeats but may differ in a detail not shown here. Equal values may be shown once.

Assays:
mature mongrel dogs = experiment: Experiment A: anesthetic recovery in dogs, 1.0 mg/kg compound of Formula Ia vs saline control; assay type: in vivo
Experimental: (§1) The patients utilized in the study were maintained in standard facilities with appropriate heating and ventilation. All dogs were placed under general anesthesia. The duration of anesthesia, time to extubation and time to sternal recumbency were recorded. Also noted were behaviors indicative of dysphoria such as vocalization and purposeless movement. A visual analog scale (“VAS”) was used to score the “quality” of the entire recovery period.
(§2) As used herein, the term “duration of anesthesia” is the time in minutes elapsed between intubation and cessation of anesthetic gases.
(§3) As used herein, the term “time to extubation” is the time in minutes elapsed between cessation of anesthetic gases and the need for removal of the endotracheal tube due to spontaneous swallowing.
(§4) As used herein, the term “time to Sternal Recumbency” is the time in minutes elapsed between cessation of anesthetic gases and the time the dog could physically place and maintain itself in sternal recumbency.
(§5) Evaluation of Recovery Period. A visual analog scale (“VAS”) was used to score the “quality” of the recovery period (0=smooth recovery, 10=rough recovery). Factors considered included, but were not limited to, vocalization, purposeless movement as well as the subjective degree of dysphoria experienced by the dog. The study director, who was blinded to treatment assignments, assigned recovery scores.
(§6) Statistical Analysis. Data from two trials conducted according to the above procedure were combined for analysis purposes. The data in the following Tables and Figures are mean±standard deviation. Duration of anesthesia, time to extubation and time to sternal recumbency data were analyzed using a paired t-test for means in Excel. Recovery VAS data were analyzed using SAS Statistical Software.
Experimental mature mongrel dogs, both male and female, weighing about 16-26 kilograms, were subcutaneously administered 1.0 mg/kg compound of Formula Ia one hour prior to preanesthetic administration. Control dogs were subcutaneously administered an equivalent volume of saline solution one hour prior to preanesthetic administration. The duration of anesthesia, time to extubation and time to sternal recumbency were recorded. The patients were monitored continuously during the anesthetic and recovery periods.
Preparation of 1.0 mg/kg compound of Formula Ia dose: Formulations were prepared by dissolving the compound of Formula Ia (10 mg/mL) and SBE-CD (10%) in distilled water to form a solution. The solution was sonicated to facilitate complete dissolution and filtered through a 0.22 μm Millipore syringe top filter prior to injection.
Administration of Dose: Solutions of compound of Formula Ia (1.0 mg/kg) or saline placebo (0.1 mL/kg) were administered by subcutaneous injection (“SC”).
Anesthetic Protocol: General anesthesia was induced using the following protocol: (1) One hour prior to preanesthetic administration, the patients were treated with subcutaneous administration of either a dose of compound of Formula Ia, as prepared above, or the saline control (0.1 mL/kg).
(2) Thirty (30) minutes prior to induction (preanesthetic), the patients were administered glycopyrrolate (0.01 mg/kg SC) and butorphanol (0.1 mg/kg SC).
(3) During the induction period, the patients were administered intravenous methohexital (8 mg/kg IV).
(4) The patients were then maintained with inhaled isoflurane at concentrations ranging from 0.5 to 3%.

geriatric beagles = experiment: Experiment B: recovery from general anesthesia in beagle dogs, 0.5 mg/kg compound of Formula Ia; assay type: in vivo
Experimental: as §1, §2, §3, §4, §5, §6
Fifteen experimental geriatric beagles, weighing 9-16 kilograms and undergoing anesthesia for dental prophylaxis, were used in this study. All dogs were fasted overnight prior to anesthesia. Experimental dogs were subcutaneously administered 0.5 mg/kg compound of Formula Ia at the time of pre-anesthetic medication. Control dogs received no treatment in addition to routine pre-anesthesia medications. The duration of anesthesia, time to extubation and time to sternal recumbency were recorded.
Preparation of 0.5 mg/kg compound of Formula Ia dose: Formulations were prepared by dissolving the compound of Formula Ia (10 mg/mL) and SBE-CD (10%) in distilled water to form a solution. The solution was sonicated to facilitate complete dissolution and filtered through a 0.22 μm Millipore syringe top filter prior to injection.
Administration of Dose: Solutions of compound of Formula Ia (0.5 mg/kg) were administered by subcutaneous injection.
Anesthetic Protocol: General anesthesia was induced and maintained using the following protocol:
(1) Preanesthetic administration: the Experimental patients were treated with subcutaneous administration of a dose of compound of Formula Ia, as prepared above. Both experimental and control patients were administered glycopyrrolate (0.01 mg/kg SC), butorphanol (0.1 mg/kg SC) and penicillin (30,000 units/kg SC)
(2) During the induction period, the patients were administered intravenous methohexital (8 mg/kg IV).
(3) The patients were then maintained with inhalant isoflurane at concentrations ranging from 0.5 to 3%.
The patients were monitored continuously during the anesthetic and recovery periods.

[1] = 1 mg/kg SC one hour prior to preanesthetic, individual dogs
[2] = 1 mg/kg SC, Mean ± SD of 12 dogs
[3] = 0.5 mg/kg SC at time of pre-anesthetic medication, beagle dogs

COc1ccc(C(C)(C)C)cc1CN[C@H]1C2CCN(CC2)[C@H]1C(c1ccccc1)c1ccccc1 [Compound of Formula Ia, (2S,3S)-2-benzhydryl-N-(5-tert-butyl-2-methoxybenzyl)quinuclidin-3-amine]
Time to extubation compared with saline group (mature mongrel dogs; 1 mg/kg SC): similar
Time to sternal recumbency compared with saline group (mature mongrel dogs; 1 mg/kg SC): similar
Time to Extubation (mature mongrel dogs; [1]): 2 min (4×) and 1 min (2×) and 3 min and 5 min (3×) and 4 min (2×)
Time to Sternal Recumbency (mature mongrel dogs; [1]): 4 min and 3 min (4×) and 6 min (2×) and 1 min and 11 min and 9 min (2×) and 7 min
Time to Extubation (mature mongrel dogs; [2]): 3 ± 2 min
Time to Sternal Recumbency (mature mongrel dogs; [2]): 5 ± 3 min
Recovery Quality (mature mongrel dogs; 1 mg/kg SC, VAS 0=smooth recovery, 10=rough recovery, individual dogs): 7.1 cm and 1.4 cm and 2.1 cm and 0.7 cm and 0.9 cm and 3.9 cm and 0.2 cm and 1.1 cm and 1.8 cm and 1.9 cm and 4.7 cm and 2.4 cm
Recovery Quality (mature mongrel dogs; 1 mg/kg SC, VAS 0=smooth, 10=rough, Mean ± SD of 12 dogs, p=0.02 vs saline): 2.3 ± 2 cm
Recovery scores compared with saline (mature mongrel dogs; 1 mg/kg SC, p=0.02): significantly lower recovery scores
Recovery VAS scores lower than saline controls (mature mongrel dogs; 1 mg/kg SC, vs saline controls): 43.9%
Time to extubation, experimental vs control group (geriatric beagles; 0.5 mg/kg SC): no statistical difference
Time to sternal recumbency, experimental vs control group (geriatric beagles; 0.5 mg/kg SC): no statistical difference
Visual analog score for smoothness of recovery period, experimental vs control group (geriatric beagles; 0.5 mg/kg SC): no statistical difference
Time to Extubation Mean ± SD (geriatric beagles; [3]): 5.00 ± 4.47 min
Time to Sternal Recumbency Mean ± SD (geriatric beagles; [3]): 10.86 ± 10.67 min
Subjective appearance during the recovery period vs control dogs (geriatric beagles; 0.5 mg/kg SC during the preoperative period): tended to look less anxious
Recovery Score Mean ± SD (geriatric beagles; 0.5 mg/kg SC, VAS 0=smooth, 10=rough, beagle dogs): 3.46 ± 1.54 cm
Treated dogs that received visual analog scores of less than 5 cm (geriatric beagles; 0.5 mg/kg SC, control dogs 4 out of 8): 7 out of 7
